Data: the NIST ThermoML archive (doi:10.1016/j.jct.2018.12.028)

How the values were obtained:
[1] = 101.3 kPa, Liquid; for viscosity: Falling or rolling sphere viscometry; for mass density: Vibrating tube method
[2] = wn = mass fraction of the nth substance listed; conditions: 101.3 kPa, Liquid, w1 = 1; for viscosity: Falling or rolling sphere viscometry; for mass density: Vibrating tube method

NCCO [2-aminoethan-1-ol]
[1]
Conditions	mass density [kg/m3]	viscosity [mPa·s]
293.15 K	1016.7	24.23
298.15 K	1012.8	18.94
303.15 K	1008.8	15.04
308.15 K	1004.9	12.14
313.15 K	1000.9	9.938
318.15 K	996.9	8.236
323.15 K	992.9	6.907
328.15 K	988.8	5.855
333.15 K	984.8	5.011
338.15 K	980.7	4.327
343.15 K	976.6	3.766
348.15 K	972.5	3.3
353.15 K	968.4	2.908

COCCO [2-methoxyethan-1-ol]
[1]
Conditions	mass density [kg/m3]	viscosity [mPa·s]
293.15 K	964.7	1.692
298.15 K	960.1	1.527
303.15 K	955.5	1.386
308.15 K	950.9	1.262
313.15 K	946.2	1.155
318.15 K	941.5	1.061
323.15 K	936.7	0.9781
328.15 K	932	0.905
333.15 K	927.2	0.8397
338.15 K	922.3	0.7818
343.15 K	917.4	0.7298
348.15 K	912.4	0.6834
353.15 K	907.4	0.6409

NCCO [2-aminoethan-1-ol] + COCCO
[2]
Conditions	mass density [kg/m3]	viscosity [mPa·s]
293.15 K	1016.7	24.23
298.15 K	1012.8	18.94
303.15 K	1008.8	15.04
308.15 K	1004.9	12.14
313.15 K	1000.9	9.938
318.15 K	996.9	8.236
323.15 K	992.9	6.907
328.15 K	988.8	5.855
333.15 K	984.8	5.011
338.15 K	980.7	4.327
343.15 K	976.6	3.766
348.15 K	972.5	3.3
353.15 K	968.4	2.908
